# Test results: patent US7585851B2, “3′-prodrugs of 2′-deoxy-β-L-nucleosides” (priority 2000, dated 2009)
# Several values for one entry are separate records, joined by “and”; a condition that tells them apart may be missing. Equal entries are not always repeated. Entries after “also recorded” stand apart in the source; their conditions may differ. Where two headings read alike, the source gives them in different places.
# Assays:
# [1] = type: in vivo, cynomologus monkey
# Description: The pharmacokinetics of L-dC following IV and oral administration of L-dC to cynomologus monkeys was determined. […] Following a six week washout period, the same three monkeys received an identical oral dose of L-dC. Blood samples for pharmacokinetic analysis were collected pre-dose and at 0.25, 0.5, 1, 2, 3, 6, 8 and 24 hours after dosing. Urine samples for pharmacokinetic analyses were collected via pan catch pre-dose and over the following intervals post-dose: 0-2, […], 4-8, and 8-12 hours, and then over 12-hour intervals thereafter through 336 hours post-dose. The drug was detected and the concentration determined using a reverse-phase high-performance liquid chromatography technique.
# Influenza A/H3N2 = test: Antiviral panel: Influenza A/H3N2 (MDCK); type: cell-based
# Measles = test: Antiviral panel: Measles (CV-1); type: cell-based
# Influenza A/H1N1 = test: Antiviral panel: Influenza A/H1N1 (MDCK); type: cell-based
# cultured CHO cells = test: Chromosomal aberration assay; type: cell-based, Chinese hamster; details: with and without metabolic activation, 5000 μg/mL
# [2] = system: Salmonella typhimurium strains TA98, TA100, TA1535, and TA1537; test: Plate incorporation mutation assay, S. typhimurium; details: with and without rat liver S-9; up to 5000 mg/plate, 5000 μg/plate
# Description: (§1) L-dC was tested for its potential to cause mutation at the histidine operon of Salmonella typhimurium strains TA98, TA100, TA1535, and TA1537 and at the tryptophan opeton of Escherichia coli strain WP2uvrA. L-dC at concentrations of […] plus positive and negative controls were tested. […] After incubation for approximately 68 hours, L-dC and controls were evaluated for the number of revertants per plate and integrity of the background microcolony lawn.
# HepG2 cells = test: Mitochondrial toxicity assay in HepG2 cells; type: cell-based, human
# [3] = system: cytosolic extracts of HepG2 cells; test: Steady state phosphorylation kinetics in HepG2 cytosolic extracts; type: biochemical, human
# [4] = system: MA-104, rhesus monkey kidney epithelial cells
# HSV-2 = test: Antiviral panel: HSV-2 (HFF); type: cell-based
# HCMV = test: Antiviral panel: HCMV (HFF); type: cell-based
# [5] = Single dose bioavailability of dival-L-dC (IV and oral) in cynomologus monkey; type: in vivo, cynomologus monkey (macaca fascicularis)
# From the text: The drug was quantitated in plasma and urine with a liquid chromatography-mass spectrometry (LC-MS) technique.
# [6] = system: HFF, human foreskin fibroblast
# HBV = test: Anti-HBV activity in HBV-expressing 2.2.15 cells (HBV DNA reduction); details: 2.2.15 cells
# [7] = monkey, in vivo, 2000 mg/kg
# RSV type A = test: Antiviral panel: RSV type A (MA-104); type: cell-based
# Parainfluenza type 3 = test: Antiviral panel: Parainfluenza type 3 (MA-104); type: cell-based
# WHV = details: 0.01-10 mg/kg/day orally, woodchucks
# [8] = system: Escherichia coli strain WP2uvrA; test: Plate incorporation mutation assay, E. coli; details: with and without rat liver S-9; up to 5000 mg/plate, 5000 μg/plate
# Description: as §1
# [9] = human
# [10] = type: in vivo; details: woodchuck; for AUCt→24: t = […]; for Cmax: analyte = label, read-out: Cmax in plasma
# [11] = system: Daudi, Burkitt's B-cell lymphoma
# DHBV = DHBV DNA synthesis in primary duck hepatocyte cultures; type: cell-based, duck hepatitis B virus; details: primary duck hepatocytes (PDH)
# [12] = rat
# Description: The drug was detected and the concentration determined in plasma and urine using a reverse-phase HPLC technique. The data were analyzed by a non-modeling mathematical method and the AUCs derived by the linear trapezoidal rule.
# [13] = system: CV-1, African green monkey kidney fibroblast cells
# [14] = L-dC 10 mg/kg IV, cynomologus monkey
# [15] = L-dC 10 mg/kg oral, cynomologus monkey
# [16] = HepG2, L-dC 10, FIAU 10, ZDV 50, ddC 1 μM
# [17] = dival-L-dC 10 mg/kg oral, monkey
compound,measurement,setting,value
"Nc1ccn([C@@H]2C[C@@H](O)[C@H](CO)O2)c(=O)n1 [L-dC, 2′-deoxy-β-L-cytidine]",renal clearance as share of total L-dC clearance,[1]; IV,87%
same,"share of the dose recovered in the urine, by analyte","[1]; IV L-dC, analyte = label",94%
same,administered dose recovered in urine,"[1]; IV, within 2 hours",71%
same,CL,[1]; [14],8.83 mL/min/kg
same,CLR,[1]; [14],7.67 mL/min/kg
same,Cmax,[1]; [14],95.7 µM
same,Tmax,[1]; [14],0 h
same,Vd,[1]; [14],1.22 L/kg
same,t1/2,[1]; [14],1.59 h
same,oral bioavailability F,"[1]; L-dC 10 mg/kg oral vs IV, cynomologus monkey",16.4%
same,Cmax,[1]; [15],3.38 µM
same,Tmax,[1]; [15],2.33 h
same,terminal t1/2,[1]; [15],2.95 h
same,"share of drug excreted / recovered dose in urine, by analyte","[1]; oral L-dC, analyte = label",~69%
same,administered oral dose recovered in urine,[1]; after 72 hours,15.5%±8%
same,administered oral dose recovered in urine,[1]; within 12 hours,Approximately 8.5%
same,EC50,Influenza A/H3N2,> 100 µM
same,EC50,Measles,> 100 µM
same,EC50,Influenza A/H1N1,> 100 µM
same,chromosomal aberrations,cultured CHO cells,no evidence of chromosomal aberrations
same,mutagenicity,[2],no evidence of mutagenicity; also recorded: not mutagenic
same,effect on mitochondrial DNA content,"HepG2 cells; HepG2, 14 days, concentrations up to 0.10 μM",no effect
same,CC50,"HepG2 cells; HepG2, after 14 days of treatment",> 2000 µM
same,"L-Lactate, % of Control",HepG2 cells; [16],101 ± 2 % of Control
same,Lipid Droplet Formation,HepG2 cells; [16],negative
same,"mtDNA, % of Control",HepG2 cells; [16],107 ± 8 % of Control
same,Mitochondrial Morphology,"HepG2 cells; HepG2, L-dC 10, FIAU 10, ZDV 50, ddC 1 μM, electron microscopy",No discernible changes; also recorded: normal
same,Vmax of phosphorylation,[3],1.12 mmol/min/mg protein
same,CC50,[4],> 100 µM
same,EC50,HSV-2,>100 µg/mL
same,EC50,HCMV,>100 µg/mL
same,"share of drug excreted / recovered dose in urine, by analyte","[5]; IV dival-L-dC, analyte = label",~93%
same,Cmax,"[5]; Intravenous (10 mg/kg Dival-L-dC), analyte = label, read-out: Cmax of each metabolite",24.6 µM
same,Cmax,"[5]; Oral (10 mg/kg dival-L-dC), analyte = label, read-out: Cmax of each metabolite",8.26 µM
same,AUC0.25→8 of L-dC,"[5]; dival-L-dC 10 mg/kg IV, monkey",19.8 µM·h
same,CL of L-dC,"[5]; dival-L-dC 10 mg/kg IV, monkey",16.8 mL/min/kg
same,Vd of L-dC,"[5]; dival-L-dC 10 mg/kg IV, monkey",2.46 L/kg
same,t1/2 of L-dC,"[5]; dival-L-dC 10 mg/kg IV, monkey",1.73 h
same,Cmax,"[5]; dival-L-dC 10 mg/kg IV, monkey, read-out: Cmax of L-dC",24.6 µM
same,AUC0.25→8 of L-dC,[5]; [17],14.0 µM·h
same,Tmax of L-dC,[5]; [17],0.67 h
same,t1/2 of L-dC,[5]; [17],2.28 h
same,share of plasma drug levels at Cmax,[5]; oral dival-L-dC,> 99%
same,"share of drug excreted / recovered dose in urine, by analyte","[5]; oral dival-L-dC, analyte = label",~95%
same,CC50,[6],>100 µg/mL
same,EC90,HBV; 10-fold reduction of HBV virion DNA levels (Table 25),1.1 ± 0.1 µM
same,EC50,HBV; read-out: EC50 for reduction in extracellular HBV DNA,0.24 µM
same,EC50,HBV; read-out: EC50 for reduction of intracellular HBV DNA replicative intermediates (RI),0.51 µM and 0.5 µM
same,EC90,HBV; read-out: EC90 against HBV replication (extracellular HBV DNA),1.07 µM and 1.06 µM
same,estimated terminal phase mean half-lives,[7],4 to 5 h
same,EC50,RSV type A,> 100 µM
same,EC50,Parainfluenza type 3,> 100 µM
same,toxicity during four-week treatment and eight-week follow-up,WHV,no drug-related toxicity; also recorded: no toxicity was observed
same,mutagenicity,[8],no evidence of mutagenicity; also recorded: not mutagenic
same,plasma protein binding,[9],19.7%±5.9%
same,CL,[10]; L-dC 10 mg/kg IV,6.5 mL/min/kg
same,Tmax,[10]; L-dC 10 mg/kg IV,0 h
same,Vd,[10]; L-dC 10 mg/kg IV,1.17 L/kg
same,t1/2,[10]; L-dC 10 mg/kg IV,2.85 h
same,AUCt→24,[10]; L-dC 10 mg/kg IV,174 µM·h
same,Cmax,[10]; L-dC 10 mg/kg IV,112 µM
same,oral bioavailability F,[10]; L-dC 10 mg/kg PO vs IV,9.57%
same,Tmax,[10]; L-dC 10 mg/kg PO,3 h
same,t1/2,[10]; L-dC 10 mg/kg PO,5.22 h
same,AUCt→24,[10]; L-dC 10 mg/kg PO,11.3 µM·h
same,Cmax,[10]; L-dC 10 mg/kg PO,1.37 µM
same,CC50,[11],>50 µg/mL
same,EC50,DHBV,0.87 µM
same,AUC0.25→8 (table head AUC0-25-28),[12]; L-dC 10 mg/kg IV,30100 µM·h
same,CL,[12]; L-dC 10 mg/kg IV,24 mL/min/kg
same,Tmax,[12]; L-dC 10 mg/kg IV,0 h
same,Vd,[12]; L-dC 10 mg/kg IV,2.53 L/kg
same,t1/2,[12]; L-dC 10 mg/kg IV,1.21 h
same,oral bioavailability F,[12]; L-dC 10 mg/kg oral vs IV,15.4%
same,AUC0.25→8 (table head AUC0-25-28),[12]; L-dC 10 mg/kg oral,4770 µM·h
same,Tmax,[12]; L-dC 10 mg/kg oral,1.0 h
same,t1/2,[12]; L-dC 10 mg/kg oral,2.52 h
same,CC50,[13],> 100 µM
